# Measurements reported in ChEMBL document CHEMBL4308841, “Synthesis, in vitro antiproliferative activity, and kinase inhibitory effects of pyrazole-containing diarylureas and diarylamides” (Eur J Med Chem, 2018).
# Legend:
# [1] = test system: HCC 2998; experiment: Growth inhibition of human HCC2998 cells assessed as cell growth at 100 uM incubated for 48 hrs by sulforhodamine B assay relative to control; type: functional; conditions: HCC 2998, 48 h, read-out: Activity
# [2] = test system: HOP-62; experiment: Growth inhibition of human HOP62 cells incubated for 48 hrs by sulforhodamine B assay; type: functional, cell-based; conditions: HOP-62, 48 h
# [3] = test system: COLO 205; experiment: Growth inhibition of human COLO205 cells assessed as cell growth at 0.1 uM incubated for 48 hrs by sulforhodamine B assay relative to control; type: functional; conditions: COLO 205, 48 h, read-out: Activity
# [4] = test system: OVCAR-4; experiment: Growth inhibition of human OVCAR4 cells assessed as cell growth at 0.01 uM incubated for 48 hrs by sulforhodamine B assay relative to control; type: functional; conditions: OVCAR-4, 48 h, read-out: Activity
# [5] = test system: PC-3; experiment: Growth inhibition of human PC3 cells assessed as cell growth at 0.1 uM incubated for 48 hrs by sulforhodamine B assay relative to control; type: functional; conditions: PC-3, 48 h, read-out: Activity
# [6] = test system: SF-539; experiment: Growth inhibition of human SF539 cells assessed as cell growth at 0.1 uM incubated for 48 hrs by sulforhodamine B assay relative to control; type: functional; conditions: SF-539, 48 h, read-out: Activity
# [7] = test system: MDA-MB-231; experiment: Growth inhibition of human MDA-MB-231 cells assessed as cell growth at 100 uM incubated for 48 hrs by sulforhodamine B assay relative to control; type: functional; conditions: MDA-MB-231, 48 h, read-out: Activity
# [8] = test system: M14; experiment: Growth inhibition of human M14 cells incubated for 48 hrs by sulforhodamine B assay; type: functional, cell-based; conditions: M14, 48 h
# [9] = test system: OVCAR-4; experiment: Growth inhibition of human OVCAR4 cells assessed as cell growth at 0.1 uM incubated for 48 hrs by sulforhodamine B assay relative to control; type: functional; conditions: OVCAR-4, 48 h, read-out: Activity
# [10] = test system: A549; experiment: Growth inhibition of human A549/ATCC cells assessed as cell growth at 1 uM incubated for 48 hrs by sulforhodamine B assay relative to control; type: functional; conditions: A549, 48 h, read-out: Activity
# [11] = test system: SK-MEL-28; experiment: Growth inhibition of human SK-MEL-28 cells assessed as cell growth at 0.01 uM incubated for 48 hrs by sulforhodamine B assay relative to control; type: functional; conditions: SK-MEL-28, 48 h, read-out: Activity
# [12] = test system: HT-29; experiment: Growth inhibition of human HT-29 cells assessed as cell growth at 10 uM incubated for 48 hrs by sulforhodamine B assay relative to control; type: functional; conditions: HT-29, 48 h, read-out: Activity
# [13] = test system: U-251; experiment: Growth inhibition of human U251 cells assessed as cell growth at 100 uM incubated for 48 hrs by sulforhodamine B assay relative to control; type: functional; conditions: U-251, 48 h, read-out: Activity
# [14] = test system: CAKI-1; experiment: Growth inhibition of human Caki1 cells assessed as cell growth at 0.1 uM incubated for 48 hrs by sulforhodamine B assay relative to control; type: functional; conditions: CAKI-1, 48 h, read-out: Activity
# [15] = test system: NCI-H23; experiment: Growth inhibition of human NCI-H23 cells incubated for 48 hrs by sulforhodamine B assay; type: functional, cell-based; conditions: NCI-H23, 48 h
# [16] = test system: NCI-H322M; experiment: Growth inhibition of human NCI-H322M cells assessed as cell growth at 100 uM incubated for 48 hrs by sulforhodamine B assay relative to control; type: functional; conditions: read-out: Activity
# [17] = test system: SK-MEL-5; experiment: Growth inhibition of human SK-MEL-5 cells incubated for 48 hrs by sulforhodamine B assay; type: functional, cell-based; conditions: SK-MEL-5, 48 h
# [18] = test system: NCI-H522; experiment: Growth inhibition of human NCI-H522 cells assessed as cell growth at 0.1 uM incubated for 48 hrs by sulforhodamine B assay relative to control; type: functional; conditions: NCI-H522, 48 h, read-out: Activity
# [19] = test system: CCRF-CEM; experiment: Growth inhibition of human CCRF-CEM cells incubated for 48 hrs by sulforhodamine B assay; type: functional, cell-based
# [20] = test system: SF-539; experiment: Growth inhibition of human SF539 cells assessed as cell growth at 0.01 uM incubated for 48 hrs by sulforhodamine B assay relative to control; type: functional; conditions: SF-539, 48 h, read-out: Activity
# [21] = test system: UACC-257; experiment: Growth inhibition of human UACC257 cells assessed as cell growth at 0.1 uM incubated for 48 hrs by sulforhodamine B assay relative to control; type: functional; conditions: UACC-257, 48 h, read-out: Activity
# [22] = test system: T47D; experiment: Growth inhibition of human T47D cells assessed as cell growth at 1 uM incubated for 48 hrs by sulforhodamine B assay relative to control; type: functional; conditions: read-out: Activity
# [23] = test system: Malme-3M; experiment: Growth inhibition of human MALME-3M cells assessed as cell growth at 0.1 uM incubated for 48 hrs by sulforhodamine B assay relative to control; type: functional; conditions: read-out: Activity
# [24] = test system: HCC 2998; experiment: Growth inhibition of human HCC2998 cells assessed as cell growth at 1 uM incubated for 48 hrs by sulforhodamine B assay relative to control; type: functional; conditions: HCC 2998, 48 h, read-out: Activity
# [25] = test system: SW-620; experiment: Growth inhibition of human SW620 cells incubated for 48 hrs by sulforhodamine B assay; type: functional, cell-based; conditions: SW-620, 48 h
# [26] = test system: OVCAR-5; experiment: Growth inhibition of human OVCAR5 cells assessed as cell growth at 0.1 uM incubated for 48 hrs by sulforhodamine B assay relative to control; type: functional; conditions: OVCAR-5, 48 h, read-out: Activity
# [27] = test system: HT-29; experiment: Growth inhibition of human HT-29 cells assessed as cell growth at 0.1 uM incubated for 48 hrs by sulforhodamine B assay relative to control; type: functional; conditions: HT-29, 48 h, read-out: Activity
# [28] = test system: DU-145; experiment: Growth inhibition of human DU145 cells assessed as cell growth at 100 uM incubated for 48 hrs by sulforhodamine B assay relative to control; type: functional; conditions: DU-145, 48 h, read-out: Activity
# [29] = test system: NCI-H460; experiment: Growth inhibition of human NCI-H460 cells incubated for 48 hrs by sulforhodamine B assay; type: functional, cell-based; conditions: NCI-H460, 48 h
# [30] = read-out: LC50 (the source's name)
# [31] = read-out: pLC50 (the source's name) (converted)
smiles,measurement,setting,value
O=C(Nc1cccc(-n2cc(-c3ccncc3)c(-c3cc(O)cc(Cl)c3)n2)c1)c1ccc(N2CCOCC2)c(C(F)(F)F)c1,growth at 100 µM,[1],-28%
same,GI50,[2]; read-out: GI50,3.59 µM
same,CC50,[2]; [30],> 100 µM
same,TGI,[2]; read-out: TGI,58.2 µM
same,GI50,[2]; read-out: pGI50 (converted),3.55 µM
same,CC50,[2]; [31],> 100 µM
same,TGI,[2]; read-out: pTGI (converted),58.9 µM
same,growth at 0.1 µM,[3],104%
same,growth at 0.01 µM,[4],100%
same,growth at 0.1 µM,[5],92%
same,growth at 0.1 µM,[6],93%
same,growth at 100 µM,[7],-58%
same,GI50,[8]; read-out: GI50,0.774 µM
same,CC50,[8]; [30],54.5 µM
same,TGI,[8]; read-out: TGI,21.4 µM
same,GI50,[8]; read-out: pGI50 (converted),0.776 µM
same,CC50,[8]; [31],8.51 µM
same,TGI,[8]; read-out: pTGI (converted),2.75 µM
same,growth at 0.1 µM,[9],103%
same,growth at 1 µM,[10],52%
same,growth at 0.01 µM,[11],99%
same,growth at 10 µM,[12],16.9%
same,growth at 100 µM,[13],-69%
same,growth at 0.1 µM,[14],93%
same,GI50,[15]; read-out: GI50,3.56 µM
same,LC50,[15]; read-out: LC50,> 100 µM
same,TGI,[15]; read-out: TGI,38.8 µM
same,GI50,[15]; read-out: pGI50 (converted),3.63 µM
same,LC50,[15]; read-out: pLC50 (converted),> 100 µM
same,TGI,[15]; read-out: pTGI (converted),38.9 µM
same,growth at 100 µM,[16],21%
same,GI50,[17]; read-out: GI50,2.33 µM
same,CC50,[17]; [30],45.4 µM
same,TGI,[17]; read-out: TGI,84.9 µM
same,GI50,[17]; read-out: pGI50 (converted),2.34 µM
same,CC50,[17]; [31],46.8 µM
same,TGI,[17]; read-out: pTGI (converted),8.51 µM
same,growth at 0.1 µM,[18],90%
same,GI50,[19]; read-out: GI50,0.543 µM
same,CC50,[19]; [30],> 100 µM
same,TGI,[19]; read-out: TGI,> 100 µM
same,GI50,[19]; read-out: pGI50 (converted),0.562 µM
same,CC50,[19]; [31],> 100 µM
same,TGI,[19]; read-out: pTGI (converted),> 100 µM
same,growth at 0.01 µM,[20],94%
same,growth at 0.1 µM,[21],91%
same,growth at 1 µM,[22],80%
same,growth at 0.1 µM,[23],85%
same,growth at 1 µM,[24],70%
same,GI50,[25]; read-out: GI50,2.53 µM
same,LC50,[25]; read-out: LC50,> 100 µM
same,TGI,[25]; read-out: TGI,70.6 µM
same,GI50,[25]; read-out: pGI50 (converted),2.82 µM
same,LC50,[25]; read-out: pLC50 (converted),> 100 µM
same,TGI,[25]; read-out: pTGI (converted),7.08 µM
same,growth at 0.1 µM,[26],90%
same,growth at 0.1 µM,[27],95%
same,growth at 100 µM,[28],13%
same,GI50,[29]; read-out: GI50,0.797 µM
same,CC50,[29]; [30],> 100 µM
same,TGI,[29]; read-out: TGI,34.8 µM
same,GI50,[29]; read-out: pGI50 (converted),0.794 µM
same,CC50,[29]; [31],> 100 µM
same,TGI,[29]; read-out: pTGI (converted),3.55 µM
